From ChEMBL document CHEMBL1133121, “4-(1,3-Dimethoxyprop-2-ylamino)-2,7-dimethyl-8-(2, 4-dichlorophenyl)pyrazolo[1,5-a]-1,3,5-triazine: a potent, orally bioavailable CRF(1) receptor antagonist” (J Med Chem, 2000) come the findings set out here.

In data set [1] the target is T1, Corticotropin-releasing factor receptor 1 (Homo sapiens, UniProt P34998).
T1 sequence (P34998 whole entry): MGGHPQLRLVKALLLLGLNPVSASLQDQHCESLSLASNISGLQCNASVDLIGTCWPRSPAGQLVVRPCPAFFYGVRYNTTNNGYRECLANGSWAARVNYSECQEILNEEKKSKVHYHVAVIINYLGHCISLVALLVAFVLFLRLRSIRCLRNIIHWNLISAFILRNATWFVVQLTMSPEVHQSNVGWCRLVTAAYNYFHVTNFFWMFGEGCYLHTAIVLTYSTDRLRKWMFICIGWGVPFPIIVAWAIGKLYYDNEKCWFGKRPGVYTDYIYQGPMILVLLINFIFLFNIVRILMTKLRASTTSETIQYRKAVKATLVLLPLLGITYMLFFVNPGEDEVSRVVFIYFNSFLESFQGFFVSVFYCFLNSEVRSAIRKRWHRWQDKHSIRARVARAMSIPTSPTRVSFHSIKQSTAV
The experiment in a line: Displacement of [125I]-tyrosine-ovine-CRF from human Corticotropin releasing factor receptor 1. Background: In a radioligand displacement assay an active substance lowers the binding of a labelled ligand.

For data set [2], the species on record is Rattus norvegicus. The experiment in a line: %binding inhibition in rat ex vivo assay after three hours. In kind it is functional. Set-up: concentration or dose not given beside the values.
For data set [3], the species on record is Rattus norvegicus. Put plainly: %binding inhibition in rat ex vivo assay after one hour. In kind it is functional. Set-up: concentration or dose not given beside the values.
The species entered for data set [4] is Rattus norvegicus. Put plainly: % binding inhibition in rat ex vivo assay after three hours. Type of data set: functional.
Data set [5] is filed under the species Rattus norvegicus. Put plainly: % binding inhibition in rat ex vivo assay after one hour. Type of data set: functional.
The test system of data set [6] is Canis familiaris. Put plainly: AUCT(nM.h) value was determined in dogs after intravenous dose of 1 mg/kg. Type of data set: ADME, organism-based, Canis lupus familiaris, Plasma. Set-up: dose 1 mg/kg, route intravenous. Conditions: dog, in vivo.
A short description of data set [7]: Tmax(h)value was determined in rats after po dose of 5 mg/kg. In kind it is ADME, organism-based. The arrangement: dose 5 mg/kg, route oral. Conditions: rat, in vivo.
Data set [8] in a line: t1/2 (h) value was determined in rats after po dose of 5 mg/kg. Conditions: rat, in vivo. In kind it is ADME, organism-based. Set-up: dose 5 mg/kg, route oral.
A short description of data set [9]: C5min (nM) value was determined in dogs after intravenous dose of 1 mg/kg. Type of data set: ADME, organism-based, Canis lupus familiaris. The arrangement: dose 1 mg/kg, route intravenous. Conditions: dog, in vivo, read-out: C5 min.
Data set [10] is described as follows: CL (L/h/kg) value was determined in dogs after intravenous dose of 1 mg/kg. Conditions: dog, in vivo, read-out: Vss (converted). Set-up: dose 1 mg/kg, route intravenous. In kind it is ADME, organism-based, Canis lupus familiaris.
Data set [11] in a line: % bioavailability value was determined in dogs after po dose of 1 mg/kg. Conditions: dog, in vivo, read-out: Bioavailabiility. Type of data set: ADME, organism-based, Canis lupus familiaris.
Data set [12] is described as follows: t1/2 (h) value was determined in dogs after po dose of 1 mg/kg. Set-up: dose 1 mg/kg, route oral. In kind it is ADME, organism-based, Canis lupus familiaris. Conditions: dog, in vivo.
For data set [13], the system named is Canis familiaris. The experiment in a line: AUCT(nM.h) value was determined in dogs after po dose of 1 mg/kg. In kind it is ADME, organism-based, Canis lupus familiaris, Plasma. The arrangement: dose 1 mg/kg, route oral. Conditions: dog, in vivo.
Data set [14] is described as follows: Cmax(nM)value was determined in rats after po dose of 5 mg/kg. Conditions: rat, in vivo. In kind it is ADME, organism-based. Set-up: dose 5 mg/kg, route oral.
A short description of data set [15]: t1/2 (h) value was determined in dogs after intravenous dose of 1 mg/kg. Type of data set: ADME, organism-based, Canis lupus familiaris. The arrangement: dose 1 mg/kg, route intravenous. Conditions: dog, in vivo.
Data set [16] concerns Canis familiaris. Put plainly: AUC(nM.h) value was determined in dogs after po dose of 1 mg/kg. In kind it is ADME, organism-based, Canis lupus familiaris, Plasma. The arrangement: dose 1 mg/kg, route oral. Conditions: dog, in vivo.
Data set [17] is described as follows: Vss(L/kg) value was determined in rats after intravenous dose of 5 mg/kg. In kind it is ADME, organism-based. The arrangement: dose 5 mg/kg, route intravenous. Conditions: rat, in vivo, read-out: Vss.
Data set [18] is described as follows: C5min (nM) value was determined in rats after intravenous dose of 5 mg/kg. In kind it is ADME, organism-based. Set-up: dose 5 mg/kg, route intravenous. Conditions: rat, in vivo, read-out: C5 min.
The subject of data set [19] is Rattus norvegicus. Put plainly: (§1) Tested for situational anxiety in rats by measuring the latency exit from a chamber after po administration. Type of data set: functional.
A short description of data set [20]: Tmax(h)value was determined in dogs after po dose of 1 mg/kg. Conditions: dog, in vivo. Set-up: dose 1 mg/kg, route oral. Type of data set: ADME, organism-based, Canis lupus familiaris.
The test system of data set [21] is Rattus norvegicus. The description is as §1. In kind it is functional. This is another data set of the same source.
Data set [22] can be described thus: Vss(L/kg)value was determined in dogs after intravenous dose of 1 mg/kg. Conditions: dog, in vivo, read-out: Vss. Set-up: dose 1 mg/kg, route intravenous. Type of data set: ADME, organism-based, Canis lupus familiaris.
The test system of data set [23] is Rattus norvegicus. Put plainly: AUCT(nM.h) value was determined in rats after po dose of 5 mg/kg. The arrangement: dose 5 mg/kg, route oral. Type of data set: ADME, organism-based, Plasma. Conditions: in vivo.
The test system of data set [24] is Rattus norvegicus. The experiment in a line: AUC(nM.h) value was determined in rats after po dose of 5 mg/kg. In kind it is ADME, organism-based, Plasma. The arrangement: dose 5 mg/kg, route oral. Conditions: in vivo.
The nature of data set [25]: t1/2 (h) value of was determined in rats after intravenous dose of 5 mg/kg. In kind it is ADME, organism-based. Conditions: rat, in vivo. Set-up: dose 5 mg/kg, route intravenous.
Data set [26] in a line: %bioavail value was determined in rats after po dose of 5 mg/kg. In kind it is ADME, organism-based. Set-up: dose 5 mg/kg, route oral. Conditions: rat, in vivo, read-out: Bioavailabiility.
Data set [27] concerns Rattus norvegicus. The experiment in a line: CL(L/h/kg) value was determined in rats after intravenous dose of 5 mg/kg. Conditions: in vivo. The arrangement: dose 5 mg/kg, route intravenous. In kind it is ADME, organism-based.
In data set [28] the test system is Canis familiaris. The experiment in a line: AUC(nM.h) value was determined in dogs after intravenous dose of 1 mg/kg. In kind it is ADME, organism-based, Canis lupus familiaris, Plasma. Set-up: dose 1 mg/kg, route intravenous. Conditions: dog, in vivo.
Data set [29] relates to Rattus norvegicus. The description is as §1. Type of data set: functional. The source holds these as a separate data set.
In data set [30] the test system is Rattus norvegicus. Described as §1. Type of data set: functional. This is another data set of the same source.
The test system of data set [31] is Rattus norvegicus. The experiment in a line: Tested for situational anxiety in rats by measuring the latency exit from a chamber after po comparison with the activity values. In kind it is functional.

Where “and” joins values, the source holds several entries; their conditions need not be identical. Identical values can stand only once.

For `CCCC(CCC)Nc1nc(C)nc2c(-c3ccc(Cl)cc3Cl)c(C)nn12`, in [1], affinity was put at a Ki of 1.6 nM. Besides, the results for the Binding inhibition in the data set filed under Rattus norvegicus [2] and in the data set listed under Rattus norvegicus [3] were 74.8% and 63.9%, respectively.
With `CCC(COC)Nc1nc(C)nc2c(-c3ccc(Cl)cc3Cl)c(C)nn12` (centres undefined), in data set [1], affinity was put at a Ki of 1.9 nM.
Take `CCCC(CC)Nc1nc(C)nc2c(-c3ccc(Cl)cc3Cl)c(C)nn12` (centres undefined): the Ki (usually the dissociation constant of the complex between target and ligand, obtained from inhibition or displacement) in data set [1] stood at 1.2 nM. For the same molecule, the figures for the Binding inhibition in the data set listed under Rattus norvegicus [2] and in the data set filed under Rattus norvegicus [3] were 67% and 46.6%, respectively.
The like results for `CCCN(CC1CC1)c1nc(C)nc2c(-c3ccc(Cl)cc3Cl)c(C)nn12` were, in that order, 0.7 nM, 95.4% and 73.3%.
In data set [1], `COCCN(CCOC)c1nc(C)nc2c(-c3ccc(Cl)cc3Cl)c(C)nn12` showed a Ki of 1.8 nM. Moreover, the Binding inhibition is given as 92.9% in the data set filed under Rattus norvegicus [2] and 85.4% in the data set listed under Rattus norvegicus [3].
As to `CCCCC(CC)Nc1nc(C)nc2c(-c3ccc(Cl)cc3Cl)c(C)nn12` (centres undefined), affinity in data set [1] was put at a Ki of 1.6 nM.
On the same count and under the same terms, next, `CCOCC(COCC)Nc1nc(C)nc2c(-c3ccc(Cl)cc3Cl)c(C)nn12`: 6.2 nM; `Cc1nc(N(C)c2ccccc2)n2nc(C)c(-c3ccc(Cl)cc3Cl)c2n1`: 44.5 nM.
Consider `CCC(CC)Nc1nc(C)nc2c(-c3ccc(Cl)cc3Cl)c(C)nn12`, for which affinity in data set [1] was put at a Ki of 1.1 nM. Also, the Binding inhibition amounted to 71.8% in the data set filed under Rattus norvegicus [2] and 65.9% in the data set listed under Rattus norvegicus [3].
For the molecule `CCCCN(CC)c1nc(C)nc2c(-c3ccc(Cl)cc3Cl)c(C)nn12`, the Binding inhibition in the data set listed under Rattus norvegicus [4] was determined as 82.9%; in the data set listed under Rattus norvegicus [5] it was 73.2%. This molecule came in with a Ki in [1] of 0.4 nM.
Take `CCCN(CCC)c1nc(C)nc2c(-c3ccc(Cl)cc3Cl)c(C)nn12`: the Ki in data set [1] is 0.6 nM.
For the molecule `COCC(COC)Nc1nc(C)nc2c(-c3ccc(Cl)cc3Cl)c(C)nn12`, the AUC T was 2280 nM·h with Canis familiaris [6], 469 nM·h with Canis familiaris [13] and 1860 nM·h in the data set on Rattus norvegicus [23]. In addition, the time of peak concentration (Tmax) (commonly the time at which the peak concentration occurs) is 0.44 h in [7] and 0.88 h in data set [20]. In addition, the half-life (as a rule, the time in which the quantity being followed falls by half) in data set [8] was 16.5 h; in data set [12] it was 33.4 h; in data set [15], 34.5 h; in data set [25], 12.3 h. The concentration at 5 min in data set [9] was 1.37 µM; in data set [18] it was 2.88 µM. Moreover, the clearance in [10] was 0.95 L/h/kg. In addition, the bioavailability came to 49.7% in data set [11] and 36.7% in data set [26]. For the same molecule, the peak level in data set [14] (Cmax) was 0.317 µM. Moreover, the AUC in the data set on Canis familiaris [16] is 555 Nm.H; in the data set on Rattus norvegicus [24], 2260 nM·h; with Canis familiaris [28], 2690 nM·h. In data set [1], this molecule showed a Ki of 1.7 nM. In addition, the Vd in [17] is 21.5 L/kg; in [22], 27.1 L/kg. In addition, the Latency to exit in the data set on Rattus norvegicus [19] was 680; in the data set with Rattus norvegicus [21] it was below 408; in the data set with Rattus norvegicus [29], below 482; in the data set on Rattus norvegicus [30], <426 and <286. In addition, the Binding inhibition in the data set filed under Rattus norvegicus [2] was 81.3%; in the data set listed under Rattus norvegicus [3] it was 78.2%. In the data set on Rattus norvegicus [27], the CL was 2 kg⁻¹ h⁻¹.
Regarding `CCCCN(CC)c1nc(C)nc2c1c(C)cn2-c1c(C)cc(C)cc1C.Cl`, the Binding inhibition in the data set listed under Rattus norvegicus [2] and in the data set filed under Rattus norvegicus [3] was below 10% throughout.
On to `CNC1=Nc2ccc(Cl)cc2C(c2ccccc2)=[N+]([O-])C1` [CHLORDIAZEPOXIDE], for which the Latency to exit in the data set on Rattus norvegicus [31] is reported as below 216.
